Source: patent US11407737B2, “Inhibitors of RAF kinases” (Kinnate Biopharma Inc., priority 2020, dated 2022)

Target: human RAF1 (Homo sapiens (Human), UniProt P04049)
Assay: Protein kinase assay (radiometric 33P-ATP, MEK1 (K97R) substrate), RAF-1
Format: biochemical
Settings: human MEK1 (K97R) substrate 3 micromolar, ATP 10 micromolar; 10-dose, 3-fold serial dilution starting at 10 micromolar; read-out: RAF-1 IC50
How it was run: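 Inhibition was calculated as percent kinase activity versus vehicle, with IC50s fitted from 33P incorporation captured on P81 paper. RAF1 was reacted for 2 hr at room temperature with 3 micromolar MEK1 (K97R) and 10 micromolar final ATP, in 20 mM HEPES pH 7.5, 10 mM MgCl2, 1% DMSO.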

Chain of human RAF1 (P04049 whole entry): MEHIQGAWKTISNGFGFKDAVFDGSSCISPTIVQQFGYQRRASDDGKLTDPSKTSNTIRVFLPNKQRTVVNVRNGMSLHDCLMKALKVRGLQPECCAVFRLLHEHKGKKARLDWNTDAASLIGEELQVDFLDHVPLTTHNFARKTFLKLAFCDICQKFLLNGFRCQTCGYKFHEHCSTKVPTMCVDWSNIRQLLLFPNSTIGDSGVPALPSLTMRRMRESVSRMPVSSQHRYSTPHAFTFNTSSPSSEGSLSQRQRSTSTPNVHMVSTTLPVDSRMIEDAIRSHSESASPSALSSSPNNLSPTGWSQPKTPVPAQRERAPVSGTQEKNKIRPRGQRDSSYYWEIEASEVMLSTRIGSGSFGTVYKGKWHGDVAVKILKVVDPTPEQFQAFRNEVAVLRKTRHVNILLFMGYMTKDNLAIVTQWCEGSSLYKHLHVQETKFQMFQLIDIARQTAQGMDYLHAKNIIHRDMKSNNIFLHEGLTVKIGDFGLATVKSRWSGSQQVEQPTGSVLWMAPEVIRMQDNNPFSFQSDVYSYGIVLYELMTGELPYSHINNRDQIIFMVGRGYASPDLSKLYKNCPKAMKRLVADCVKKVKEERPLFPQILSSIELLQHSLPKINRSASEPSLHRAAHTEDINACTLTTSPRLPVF

Structure (SMILES) | IC50 [nM]
COc1cc(-c2cc(-c3cc(NC(=O)N4CC[C@@H](CC(F)(F)F)C4)ccc3C)cc(N3CCOCC3)n2)ccn1 [Example 25, (3S)—N-[3-[2-methoxy-6-(morpholin-4-yl)-[2,4-bipyridin]-4-yl]-4-methylphenyl]-3-(2,2,2-trifluoroethyl)pyrrolidine-1-carboxamide] | < 1
Cc1ccc(NC(=O)N2CC[C@@H](CC(F)(F)F)C2)cc1-c1cc(-c2ccnn2CCO)nc(N2CCOCC2)c1 [Example 59, (3S)—N-(3-{2-[2-(2-hydroxyethyl)pyrazol-3-yl]-6-(morpholin-4-yl)pyridin-4-yl}-4-methylphenyl)-3-(2,2,2-trifluoroethyl)pyrrolidine-1-carboxamide] | 1 to 10
Cc1ccc(NC(=O)N2CC[C@@H](CC(F)(F)F)C2)cc1-c1cc([C@@H]2C[C@@H]2CO)nc(N2CCOCC2)c1 [Example 13, (3S)—N-(3-[2-[(1R,2S)-2-(hydroxymethyl)cyclopropyl]-6-(morpholin-4-yl)pyridin-4-yl]-4-methylphenyl)-3-(2,2,2-trifluoroethyl)pyrrolidine-1-carboxamide] | < 1
Cc1ccc(NC(=O)N2CC[C@@H](CC(F)(F)F)C2)cc1-c1cc(-c2cnn(C(F)F)c2)nc(N2CCOCC2)c1 [Example 41, (3S)—N-(3-[2-[1-(difluoromethyl)pyrazol-4-yl]-6-(morpholin-4-yl)pyridin-4-yl]-4-methylphenyl)-3-(2,2,2-trifluoroethyl)pyrrolidine-1-carboxamide] | 1 to 10
Cc1cc(F)c(NC(=O)N2CC=C(C(F)(F)F)C2)cc1-c1cc(-c2cnn(C)c2)nc(N2CCOCC2)c1 [Example 69, N-{2-fluoro-4-methyl-5-[2-(1-methylpyrazol-4-yl)-6-(morpholin-4-yl)pyridin-4-yl]phenyl}-3-(trifluoromethyl)-2,5-dihydropyrrole-1-carboxamide] | < 1
Cc1ccc(NC(=O)N2CC[C@@H](CC(F)(F)F)C2)cc1-c1cc(-c2cn(C)nn2)nc(N2CCOCC2)c1 [Example 14, (S)—N-(4-methyl-3-(2-(1-methyl-1H-1,2,3-triazol-4-yl)-6-morpholinopyridin-4-yl)phenyl)-3-(2,2,2-trifluoroethyl)pyrrolidine-1-carboxamide] | 1 to 10
Cc1ccc(NC(=O)N2CC[C@@H](CC(F)(F)F)C2)cc1-c1cc(-c2cncn2C)nc(N2CCOCC2)c1 [Example 16, (3S)—N-[4-methyl-3-[2-(3-methylimidazol-4-yl)-6-(morpholin-4-yl)pyridin-4-yl]phenyl]-3-(2,2,2-trifluoroethyl)pyrrolidine-1-carboxamide] | 1 to 10
